“And” between values parts separate entries of the source, which are not always exact repeats. Identical values can stand only once.
Key:
MDA-MB-231 cells [1] = system: MDA-MB-231 cells
Protocol: Mitochondrial bioenergetics (MitoStress assay): Oxygen Consumption Rate (OCR) was monitored by using Seahorse XF^e24 Cell MitoStress Test Kit (Seahorse Bioscience). Prior to the assay, XF sensor cartridges were hydrated. MDA-MB-231 cells were seeded onto XF^e24-well cell culture plates at a density of 4×10^4 cells/well in 250 μL DMEM complete growth medium and then incubated for 48 h at 37° C. in 5% CO2 incubator. The cells were subsequently exposed to compounds of interest at different concentrations for 24 hours. The wells were washed with 250 μL of pre-warmed Seahorse XF DMEM media, supplemented with 10 mM glucose, 1 mM sodium pyruvate and 2 mM glutamine, pH 7.4 and replaced with 525 μL of this media. The plate was incubated at 37° C. in a non-CO2 incubator for 1 hour before the measurement. Three baseline measurements of OCR were recorded and 1 μM of olygomycin (ATP synthase complex inhibitor), 1 μM of FCCP (ATP synthesis uncoupler trifluorocarbonylcyanide phenylhydrazone) and a mixture of 0.5 μM of antimycin-A (inhibitor of complex III) and 0.5 μM of rotenone (inhibitor of electron transfer from Fe-S center of complex I to ubiquinone) were added in sequence. OCR was measured using Seahorse XF^e24 Cell Bioanalyzer (Seahorse Biosciences). The media was removed from the wells and 60 μL of 0.1 M NaOH was added. After vigorous pipetting, the protein content was quantified by BCA assay and OCR was normalized per protein content.

[2] = system: LC3-II, p62, Ulk1 (Ser757); assay: Western blot, autophagy markers
Protocol: Western blotting. MDA-MB-231 cells were seeded into Cellstar 6-well plates (Greiner Bio-One) at a density of 60×10^4 cells/well (2 mL per well). After the cells were allowed to resume exponential growth for 24 hours, they were exposed to compounds of interest at various concentrations for 2, 6 and 24 hours. The cells were washed twice with PBS and lysed with RIPA buffer (50-100 μL) and kept for 5-10 minutes at 4° C. The samples were sonicated in ice bath (3 times for 30 seconds). The supernatant was then collected after centrifugation (1.3×10^4 rpm, 4° C. for 15 minutes) and total protein content of each sample was quantified via Bradford's assay. Equal quantities of protein (50 μg) were reconstituted in loading buffer (5× Laemmli Buffer with 5% DTT) and heated at 100° C. for 10 minutes. Subsequently, the protein mixtures were resolved on a 8%, 10% or 12% SDS-PAGE gel by electrophoresis (90 V for 30 minutes followed by 120 V for 60 minutes) and transferred onto a nitrocellulose membrane (200 mA for 2 hours). The protein bands were visualised with Ponceau S stain solution and the nitrocellulose membranes were cut into strips based on the protein ladder. The membranes were washed with a TBS-T wash buffer (0.1% Tween-20 in 1×PBS) 3 times for 5 minutes. Subsequently, they were blocked in 5% BSA (w/v) in wash buffer for 1 hour and incubated with the appropriate primary antibodies in 5% BSA (w/v) in wash buffer at 4° C. overnight. The membranes were washed with a wash buffer 3 times for 7 minutes. After incubation with HRP-conjugated secondary antibodies in 2% BSA (w/v) in wash buffer (room temperature, 2 hours), the membranes were washed with a wash buffer 4× for 5 minutes. Immune complexes were detected with Luminata HRP substrates and analysed using enhanced chemiluminescence imaging. Actin was used as a loading control. […]
One of the hallmarks of autophagy was the conversion of cytosolic LC3-I to autophagosome-bound LC3-II which was monitored by Western Blotting.

rat liver TrxR = molecular target: T1, rat liver TrxR (Rattus norvegicus, UniProt O89049); assay: Thioredoxin reductase inhibition, DTNB reduction assay; settings: read-out: IC50 TrxR; DTNB reduction assay, exposure time 30 min
T1 sequence (O89049 1-499): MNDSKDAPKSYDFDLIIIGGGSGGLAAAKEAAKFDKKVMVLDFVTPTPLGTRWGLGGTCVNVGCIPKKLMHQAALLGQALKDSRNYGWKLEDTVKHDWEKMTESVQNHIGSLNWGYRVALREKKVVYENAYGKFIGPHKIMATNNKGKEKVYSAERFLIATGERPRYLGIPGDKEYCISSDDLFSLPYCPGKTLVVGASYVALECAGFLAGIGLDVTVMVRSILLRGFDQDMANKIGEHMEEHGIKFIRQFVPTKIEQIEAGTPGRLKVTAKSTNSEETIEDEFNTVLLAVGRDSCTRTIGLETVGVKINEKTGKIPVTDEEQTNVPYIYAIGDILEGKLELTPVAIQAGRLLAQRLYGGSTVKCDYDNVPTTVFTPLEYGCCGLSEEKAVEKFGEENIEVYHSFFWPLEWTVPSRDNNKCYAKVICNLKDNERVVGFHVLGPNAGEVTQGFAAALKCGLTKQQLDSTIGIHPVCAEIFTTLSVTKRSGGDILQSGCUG
Protocol: Thioredoxin reductase inhibition assay. Assay was performed according to the protocol provided by the manufacturer. […] Compounds of interest were serially diluted at the separate 96-well plate and 4 μl of each concentration was added to the appropriate wells. The reaction mixture was incubated with gentle shaking (room temperature, 30 minutes). Subsequently, 6 μl of DNTB (100 mM) was added and incubated for an additional 3 minutes.
Compounds of interest at six different concentrations were incubated with the isolated rat liver TrxR enzyme in the presence of NADPH for 30 minutes, followed by 2 minutes incubation with the DNTB reagent.

[3] = Reactivity towards glutathione, ligand release (HR-MS, UV-vis); type: physicochemical
From the text: NMR- and MS-based stability studies.
Intriguingly, the reactivity of Au^III-metformin complexes towards GSH was drastically different despite their similar structures.

[4] = system: AC10 (human ventricular cardiomyocytes); assay: MTT toxicity assay in cardiomyocytes AC10; settings: read-out: EC50 AC10; MTT assay, exposure time 72 hours
Protocol: (§2) Cell lines and culture conditions. Human ovarian carcinoma cells A2780 and A2780cisR, and human breast adenocarcinoma MDA-MB-231 cells, murine hepatocytes TAMH and human cardiomyocytes AC10 were obtained from ATCC.
(§3) Inhibition of cell viability assay. The cytotoxicity of the compounds was determined by colorimetric MTT assay. The cells were harvested from culture flasks by trypsinization and seeded into Cellstar 96-well microculture plates at the seeding density of 6000 cells per well (6×10^4 cells/mL). TAMH and AC10 cells were seeded at 12000 and 5000 cells per well, respectively. After cells were allowed to resume exponential growth for 24 hours, they were exposed to drugs at different concentrations in media for 72 hours. The drugs were diluted in complete medium at the desired concentration and added to each well (100 μL) and serially diluted to other wells. After exposure for 72 hours, the media was replaced with MTT in media (5 mg/mL, 100 μL) and incubated for additional 45 minutes. Subsequently, the medium was aspirated and the purple formazan crystals formed in viable cells were dissolved in DMSO (100 μL). Optical densities were measured at 570 nm using the BioTek H1 Synergy microplate reader. […] Evaluation was based on means from at least three independent experiments, each comprising six replicates per concentration level. For experiments with inhibitors, MDA-MB-231 cells were seeded at the seeding density of 8000 cells per well (8×10^4 cells/mL).

[5] = molecular target: protein kinase B beta (PKBβ) (Homo sapiens, UniProt P31751, S474D); assay: Kinase screening, radioactive 33P-ATP filter-binding assay, PKBβ; settings: 10 μM of 3met
protein kinase B beta (PKBβ), sequence (P31751 120-481 S474D limits assumed): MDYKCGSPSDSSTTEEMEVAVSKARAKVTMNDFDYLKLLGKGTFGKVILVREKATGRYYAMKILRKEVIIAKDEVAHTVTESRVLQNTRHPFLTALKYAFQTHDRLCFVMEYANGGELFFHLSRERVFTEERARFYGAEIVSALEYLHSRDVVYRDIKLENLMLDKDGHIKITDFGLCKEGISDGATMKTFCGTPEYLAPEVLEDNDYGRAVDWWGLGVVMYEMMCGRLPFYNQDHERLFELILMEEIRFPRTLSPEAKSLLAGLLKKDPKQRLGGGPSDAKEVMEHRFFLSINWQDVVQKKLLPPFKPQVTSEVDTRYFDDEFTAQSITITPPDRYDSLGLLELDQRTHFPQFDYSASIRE
Protocol: (§4) Kinase screening was performed at the International Centre for Kinase profiling (University of Dundee, UK) according to literature procedure (Bain J, Plater L, Elliott M, Shpiro N, Hastie C J, McLauchlan H, et al. The selectivity of protein kinase inhibitors: a further update. Biochem J 2007; 408:297-315).

[6] = tumor-bearing mice
Protocol: Organ distribution studies: At the experimental endpoint, the hearts were perfused with PBS immediately before the excision of the organs. Brain, liver, kidney, spleen, heart, lung, bone and tumor tissues were collected from each mouse and flash-frozen in liquid nitrogen. The organs of the vehicle-treated mouse were used for the measurements of the background. The organs were lyophilized for 4 days, weighed, mechanically minced and digested in 100 μl of ultrapure 65% HNO3 at 105° C. for 3 days. The resulting solution was diluted to 2% v/v HNO3 with ultrapure Milli-Q water. Gold content was measured by ICP-MS as described above.
Additionally, the Au biodistribution across various organs in tumor-bearing mice was assessed.

MDA-MB-231 tumors [7] = assay: Histopathological examination of H&E-stained tumors (QuPath)
insulin receptor (IR) = insulin receptor (IR) (Homo sapiens, UniProt P06213); assay: Kinase screening, radioactive 33P-ATP filter-binding assay, IR; settings: 10 μM of 3met
insulin receptor (IR), sequence (P06213 1001-1382 limits assumed): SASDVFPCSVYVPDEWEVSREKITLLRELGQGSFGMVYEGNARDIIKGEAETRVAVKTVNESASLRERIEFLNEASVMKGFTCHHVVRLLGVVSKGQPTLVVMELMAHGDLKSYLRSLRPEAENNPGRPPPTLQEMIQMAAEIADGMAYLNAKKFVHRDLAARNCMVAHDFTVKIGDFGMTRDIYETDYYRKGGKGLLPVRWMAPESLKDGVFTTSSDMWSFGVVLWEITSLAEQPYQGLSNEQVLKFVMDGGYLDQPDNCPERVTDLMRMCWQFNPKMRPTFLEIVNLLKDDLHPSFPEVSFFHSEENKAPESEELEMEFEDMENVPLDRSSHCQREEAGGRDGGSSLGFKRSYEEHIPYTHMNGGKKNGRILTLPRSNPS
Protocol: as §4

[8] = system: TAMH (transforming growth factor-a transgenic mouse hepatocytes); assay: MTT toxicity assay in hepatocytes TAMH; settings: read-out: EC50 TAMH, exposure time 72 hours
Protocol: as §2
Inhibition of cell viability assay. The cytotoxicity of the compounds was determined by colorimetric MTT assay. The cells were harvested from culture flasks by trypsinization and seeded into Cellstar 96-well microculture plates at the seeding density of 6000 cells per well (6×10^4 cells/mL). TAMH and AC10 cells were seeded at 12000 and 5000 cells per well, respectively. After cells were allowed to resume exponential growth for 24 hours, they were exposed to drugs at different concentrations in media for 72 hours. The drugs were diluted in complete medium at the desired concentration and added to each well (100 μL) and serially diluted to other wells. After exposure for 72 hours, the media was replaced with MTT in media (5 mg/mL, 100 μL) and incubated for additional 45 minutes. Subsequently, the medium was aspirated and the purple formazan crystals formed in viable cells were dissolved in DMSO (100 μL). Optical densities were measured at 570 nm using the BioTek H1 Synergy microplate reader. […] Evaluation was based on means from at least three independent experiments, each comprising six replicates per concentration level. […]

[9] = system: A2780 (ovarian carcinoma); assay: MTT cytotoxicity assay, A2780; settings: read-out: EC50 A2780; MTT assay, exposure time 72 hours
Protocol: (§5) Human ovarian carcinoma cells A2780 and A2780cisR, and human breast adenocarcinoma MDA-MB-231 cells, murine hepatocytes TAMH and human cardiomyocytes AC10 were obtained from ATCC. […] The stock of cisplatin was commercially available clinical grade solution in saline buffer.
(§6) Inhibition of cell viability assay. The cytotoxicity of the compounds was determined by colorimetric MTT assay. The cells were harvested from culture flasks by trypsinization and seeded into Cellstar 96-well microculture plates at the seeding density of 6000 cells per well (6×10^4 cells/mL). TAMH and AC10 cells were seeded at 12000 and 5000 cells per well, respectively. After cells were allowed to resume exponential growth for 24 hours, they were exposed to drugs at different concentrations in media for 72 hours. The drugs were diluted in complete medium at the desired concentration and added to each well (100 μL) and serially diluted to other wells. After exposure for 72 hours, the media was replaced with MTT in media (5 mg/mL, 100 μL) and incubated for additional 45 minutes. Subsequently, the medium was aspirated and the purple formazan crystals formed in viable cells were dissolved in DMSO (100 μL). Optical densities were measured at 570 nm using the BioTek H1 Synergy microplate reader. […] Evaluation was based on means from at least three independent experiments, each comprising six replicates per concentration level.

MDA-MB-231 cells [10] = system: MDA-MB-231 cells; remark: listed apart in the source
Protocol: Glycolysis Stress Test assay: Extracellular acidification rate (ECAR) was monitored by using Seahorse XF^e24 Glycolysis Stress Test Kit (Seahorse Bioscience). Prior to the assay, XF sensor cartridges were hydrated. MDA-MB-231 cells were seeded onto XF^e24-well cell culture plates at a density of 4×10^4 cells/well in 250 μL DMEM complete growth medium and then incubated for 48 hours at 37° C. in 5% CO2 incubator. The cells were subsequently exposed to compounds of interest at different concentrations for 24 hours. The wells were washed with 250 μL of pre-warmed Seahorse XF DMEM media, supplemented with 100 mM glutamine, pH 7.4 and replaced with 525 μL of this media. The plate was incubated at 37° C. in a non-CO2 incubator for 1 hour before the measurement. Three baseline measurements of ECAR were recorded and 10 mM of glucose, 1 μM of olygomycin and 100 mM of 2-deoxyglucose (2-DG) were added in sequence. ECAR was measured using Seahorse XF^e24 Cell Bioanalyzer (Seahorse Biosciences). The media was removed from the wells and 60 μL of 0.1 M NaOH was added. After vigorous pipetting, the protein content was quantified by BCA assay and OCR was normalized per protein content.

MDA-MB-231 cells [11] = assay: Cellular accumulation of Au by ICP-MS; settings: ICP-MS after 24 hour exposure at 1.4 μM
Protocol: Cellular accumulation of Au complexes was determined in MDA-MB-231 cells. Cells were seeded into Cellstar 6-well plates (Greiner Bio-one) at a density of 60×10^4 cells/well (2 mL per well). After the cells were allowed to resume exponential growth for 24 hours, they were exposed to compounds of interest at various concentrations for 24 hours at 37° C. The cells were washed twice with 1 mL of PBS and lysed with RIPA lysis buffer for 5-10 min at 4° C. The cell lysates were scraped from the wells and transferred to separate 1.5 mL microtubes. The supernatant was then collected after centrifugation (13000 rpm, 4° C. for 15 minutes) and total protein content of each sample was quantified via Bradford's assay. […] The resulting solution was diluted to 1 mL (2-4% v/v HNO3) with ultrapure Milli-Q water. Au content of each sample was quantified by ICP-MS. Re was used as an internal standard. […] Metal standards for calibration curve (0, 0.5, 1, 2, 5, 10, 20, 40 ppb) were freshly prepared before each measurement. All readings were made in triplicates in He mode.

MDA-MB-231 cells [12] = system: MDA-MB-231 cells; remark: listed apart in the source
Protocol: as §3

[13] = molecular target: extracellular signal-regulated kinase 1 (ERK1) (Homo sapiens, UniProt P27361); assay: Kinase screening, radioactive 33P-ATP filter-binding assay, ERK1; settings: 10 μM of 3met
extracellular signal-regulated kinase 1 (ERK1), sequence (P27361 whole entry): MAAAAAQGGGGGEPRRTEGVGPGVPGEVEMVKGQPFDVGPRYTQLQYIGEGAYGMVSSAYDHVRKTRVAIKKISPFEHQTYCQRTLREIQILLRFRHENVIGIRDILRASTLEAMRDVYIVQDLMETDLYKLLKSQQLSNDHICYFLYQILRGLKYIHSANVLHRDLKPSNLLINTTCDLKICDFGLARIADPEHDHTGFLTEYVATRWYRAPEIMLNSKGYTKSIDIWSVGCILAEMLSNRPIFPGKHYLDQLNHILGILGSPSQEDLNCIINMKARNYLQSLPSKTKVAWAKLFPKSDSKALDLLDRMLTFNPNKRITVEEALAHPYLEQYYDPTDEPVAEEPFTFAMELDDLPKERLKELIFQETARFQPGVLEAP
Protocol: as §4

BiP, CHOP, p-elF2α = settings: 0.5 and 2EC50, 2, 6 and 24 hours
Protocol: (§7) Western blotting. MDA-MB-231 cells were seeded into Cellstar 6-well plates (Greiner Bio-One) at a density of 60×10^4 cells/well (2 mL per well). After the cells were allowed to resume exponential growth for 24 hours, they were exposed to compounds of interest at various concentrations for 2, 6 and 24 hours. The cells were washed twice with PBS and lysed with RIPA buffer (50-100 μL) and kept for 5-10 minutes at 4° C. The samples were sonicated in ice bath (3 times for 30 seconds). The supernatant was then collected after centrifugation (1.3×10^4 rpm, 4° C. for 15 minutes) and total protein content of each sample was quantified via Bradford's assay. Equal quantities of protein (50 μg) were reconstituted in loading buffer (5× Laemmli Buffer with 5% DTT) and heated at 100° C. for 10 minutes. Subsequently, the protein mixtures were resolved on a 8%, 10% or 12% SDS-PAGE gel by electrophoresis (90 V for 30 minutes followed by 120 V for 60 minutes) and transferred onto a nitrocellulose membrane (200 mA for 2 hours). The protein bands were visualised with Ponceau S stain solution and the nitrocellulose membranes were cut into strips based on the protein ladder. The membranes were washed with a TBS-T wash buffer (0.1% Tween-20 in 1×PBS) 3 times for 5 minutes. […] Immune complexes were detected with Luminata HRP substrates and analysed using enhanced chemiluminescence imaging. […]

[14] = system: A2780cisR (ovarian carcinoma); assay: MTT cytotoxicity assay, A2780cisR
Protocol: as §5, §6

[15] = system: c-Jun N-terminal kinase (JNK); settings: MDA-MB-231, apparent after 24 hours
Protocol: as §7

[16] = system: MDA-MB-231 (breast adenocarcinoma); assay: MTT cytotoxicity assay, MDA-MB-231; settings: read-out: EC50 MDA-MB-231; MTT assay, exposure time 72 hours
Protocol: as §5, §6

[17] = Stability in ammonium carbonate buffer by high resolution ESI-MS; settings: ammonium carbonate buffer pH 7.4, 37° C., 1, 3 and 24 hours
Protocol: NMR and mass spectrometric (MS) methods were employed to characterize the stability of Au complexes in DMSO and aqueous media. ^1H NMR stability studies were performed over the period of 6-10 days in d^6-DMSO and D2O (1met*).

[18] = Protocol: (§1) Animal experiments: 6-week-old female athymic nude mice were purchased from Invigo. Animals were housed in animal-holding units at Center for Comparative Medicine, Northwestern University in a pathogen-free environment at constant temperature in a 12/12-hour light/dark cycle. All animal procedures were carried out in accordance with a protocol approved by the Institutional Animal Care and Use Committee, Protocol number: IS00002999. Animals were acclimatized for 2 weeks following arrival before the beginning of experiments. Mice were allowed free access to food and water. […] MDA-MB-231 cells expressing firefly luciferase were collected by trypsinization and mixed with Matrigel (1:1) for fat pad injections. The MDA-MB-231 cell/matrigel mixture (100 μI) was injected into the fat pad of the fourth mammary glands on both sides of 6-week-old female athymic nude-Foxn1^nu mice (Envigo) at 2.5×10^5 cells/gland under ketamine/xylazine anesthesia (50-100/5-10 mg/kg). Ketaprofen and Buprenophrine SR were injected subcutaneously for pain management at 2-5 mg/kg and 0.5-1 mg/kg, respectively. The growth of tumors was monitored by live animal imaging. Once tumors became palpable (week 2 after tumor implantation), treatment was initiated. Animals were separated into two groups (7 mice in each group) and tumor dimensions were measured using a caliper by width×length (mm^2). […] Animals were sacrificed on week 6. Animals were controlled for distress development. Their weight changes were monitored every 2-3 days for 6 weeks. […] Statistical analysis was done by Student's unpaired T-test and One-way Anova test with post-hoc Dunnett test using GraphPad Prism 9 software.
The tolerability of the chosen dose level was judged based on the weight loss and clinical score.

MDA-MB-231 tumors [19] = system: MDA-MB-231 tumors
Protocol: as §1
Luciferase-transfected MDA-MB-231 cells were injected into […] 2 fat pads near inguinal nipples and tumor growth was controlled by bioluminescent imaging.

SMILES: CN(C)C1=[NH+][Au-]2([NH]C(N)=N1)[c]1ccccc1C(=O)c1cccc[n+]12.F[P-](F)(F)(F)(F)F (stereo not shown) [Compound 3met]
- non-mitochondrial respiration (MDA-MB-231 cells [1]; 24 hours): not significantly inhibited
- mitochondrial bioenergetic parameters (OCR) (MDA-MB-231 cells [1]; 24 hours, increasing concentrations): dose-dependent progressive decrease of all mitochondrial bioenergetic parameters
- concentration significantly inhibiting mitochondrial respiration (MDA-MB-231 cells [1]; as low as): 1.5 µM
- Ulk1 phosphorylation at Ser757 ([2]; 2EC50, 24 hours): marked dephosphorylation of Ulk1 at Ser757 site
- p62 levels ([2]; MDA-MB-231): increase of p62 levels
- LC3-II expression ([2]; MDA-MB-231, concentration- and time-dependent): significantly enhanced the expression of LC3-II
- IC50 (rat liver TrxR): 1.3 ± 0.3 nM
- decrease of peak area of 3met+ (M+) signal ([3]; 1 eq. GSH, ammonium carbonate): more than 27 fold
- increase of peak area of metformin signal (m/z 130.1078) ([3]; 1 eq. GSH, ammonium carbonate, after 3 hours): more than 5 fold
- reactivity towards GSH / ligand release in words ([3]; with GSH, HR-MS and UV-vis): time-dependent release of metformin
- EC50 [4]: 7.4 ± 3 µM
- inhibition of PKBβ [5]: 100%
- Au biodistribution in words [6]: selectively accumulated in tumors
- inflammatory cells infiltration of tumors (MDA-MB-231 tumors [7]; H&E): marked inflammatory cells infiltration
- Area (MDA-MB-231 tumors [7]; single tumor image): 23769502 μm^2 and 27637537.7 μm^2 and 28709913 μm^2
- Necrosis % (MDA-MB-231 tumors [7]; single tumor image): 32.52% and 41% and 26.24%
- Necrosis area (MDA-MB-231 tumors [7]; single tumor image): 7.73 mm^2 and 11.33 mm^2 and 7.533 mm^2
- Perimeter (MDA-MB-231 tumors [7]; single tumor image): 20891.3 μm and 25672.2 μm and 21813.3 μm
- Tumor % (MDA-MB-231 tumors [7]; single tumor image): 60.11% and 34.58% and 66.37%
- Tumor area (MDA-MB-231 tumors [7]; single tumor image): 14.29 mm^2 and 9.556 mm^2 and 19.05 mm^2
- inhibition of IR kinase (insulin receptor (IR)): 70%
- EC50 [8]: 2700 ± 700 nM
- EC50 [9]: 150 ± 30 nM
- glycolytic parameters (ECAR), low concentration (MDA-MB-231 cells [10]; 0.05 μM, 24 hours): significant increase of all glycolytic parameters
- glycolytic reserve (ECAR), higher concentration (MDA-MB-231 cells [10]; 1.5 μM, 24 hour exposure): significantly declined glycolytic reserve
- Cellular accumulation MDA-MB-231 (MDA-MB-231 cells [11]): 1.37 ± 0.48 nmol Au/mg protein
- increase of 3met activity in presence of 3-MA (MDA-MB-231 cells [12]; 3-methyladenine 2 mM, 24 hours): more than 2 times
- abrogation of 3met-induced cell death by cycloheximide (MDA-MB-231 cells [12]; CHX 12.5 μM, 24 hours): ≈ 3.5 times
- abrogation of 3met activity by SP600125 (MDA-MB-231 cells [12]; JNK inhibitor SP600125 20 μM): ≈ 1.7 fold
- inhibition of ERK1 [13]: 90%
- CHOP expression over time (BiP, CHOP, p-elF2α): time-dependent increase of CHOP
- RF (Resistance Factor) ([14]; IC50 (A2780cisR)/IC50 (A2780)): 4
- EC50 ([14]; read-out: EC50 A2780cisR, MTT assay, exposure time 72 hours): 530 ± 70 nM
- JNK phosphorylation [15]: JNK phosphorylation already at 0.5 EC50 drug concentrations
- EC50 [16]: 720 ± 80 nM
- stability, detection of molecular ion [M]+ [17]: stable for 24 hours
- weight loss ([18]; 20 mg/kg, day 6): 11% and 10%
- dose-limiting toxicity ([18]; histopathological changes): kidney and liver toxicity
- maximum tolerated dose (MTD) ([18]; intraperitoneal route, daily for 4-5 days): 15 mg/kg
- tumor growth (MDA-MB-231 tumors [19]; 15 mg/kg i.p., weeks 3, 4 and 5, vs vehicle): no tumor growth was observed after week 3
- deaths in drug-treated group (MDA-MB-231 tumors [19]; 15 mg/kg, 7 mice per group): Two mice died
- kidney histopathology (MDA-MB-231 tumors [19]; H&E, endpoint, 5 weeks): distorted glomeruli, dilated tubules, edema exudate, light necrosis
- liver histopathology (MDA-MB-231 tumors [19]; H&E, endpoint, 5 weeks): vacualization, fatty changes, periportal lymphoid infiltration and expansion of Disse space in A and B, and focal necrosis in C
